According to ChEMBL document CHEMBL3425445, “Synthesis, crystal structure and biological evaluation of substituted quinazolinone benzoates as novel antituberculosis agents targeting acetohydroxyacid synthase” (Eur J Med Chem, 2015):
Values after ≈ are worked out from the molar mass of the structure shown.

What was measured:
Format in all cases: functional
[1] = test system: Mycobacterium tuberculosis; experiment: Antitubercular activity against isoniazid-resistant Mycobacterium tuberculosis assessed as inhibition of bacterial growth after 4 weeks by two-fold dilution technique; details: 672 h
[2] = test system: Mycobacterium tuberculosis; experiment: Antitubercular activity against rifampin and isoniazid-resistant Mycobacterium tuberculosis assessed as inhibition of bacterial growth after 4 weeks by two-fold dilution technique; details: 672 h
[3] = test system: Mycobacterium tuberculosis; experiment: Antitubercular activity against rifampin, isoniazid and streptomycin-resistant Mycobacterium tuberculosis assessed as inhibition of bacterial growth after 4 weeks by two-fold dilution technique; details: 672 h
[4] = test system: Mycobacterium tuberculosis; experiment: Antitubercular activity against rifampin, isoniazid and ethambutol-resistant Mycobacterium tuberculosis assessed as inhibition of bacterial growth after 4 weeks by two-fold dilution technique; details: 672 h
[5] = test system: Mycobacterium tuberculosis; experiment: Antitubercular activity against rifampin, isoniazid, amikacin and ofloxacin-resistant Mycobacterium tuberculosis assessed as inhibition of bacterial growth after 4 weeks by two-fold dilution technique; details: 672 h
[6] = test system: Mycobacterium tuberculosis; experiment: Antitubercular activity against rifampin, isoniazid, kanamycin and ofloxacin-resistant Mycobacterium tuberculosis assessed as inhibition of bacterial growth after 4 weeks by two-fold dilution technique; details: 672 h
[7] = test system: Mycobacterium tuberculosis; experiment: Antitubercular activity against isoniazid-resistant Mycobacterium tuberculosis infected in human THP-1 cells assessed as inhibition of intracellular activity at 20 mg/L after 4 days; details: THP-1, 96 h
[8] = test system: Mycobacterium tuberculosis; experiment: Antitubercular activity against rifampin and isoniazid-resistant Mycobacterium tuberculosis infected in human THP-1 cells assessed as inhibition of intracellular activity at 20 mg/L after 4 days; details: THP-1, 96 h
[9] = test system: Mycobacterium tuberculosis; experiment: Antitubercular activity against rifampin, isoniazid and streptomycin-resistant Mycobacterium tuberculosis infected in human THP-1 cells assessed as inhibition of intracellular activity at 20 mg/L after 4 days; details: THP-1, 96 h
[10] = test system: Mycobacterium tuberculosis; experiment: Antitubercular activity against rifampin, isoniazid and ethambutol-resistant Mycobacterium tuberculosis infected in human THP-1 cells assessed as inhibition of intracellular activity at 20 mg/L after 4 days; details: THP-1, 96 h
[11] = test system: Mycobacterium tuberculosis; experiment: Antitubercular activity against rifampin, isoniazid, amikacin and ofloxacin-resistant Mycobacterium tuberculosis infected in human THP-1 cells assessed as inhibition of intracellular activity at 20 mg/L after 4 days; details: THP-1, 96 h
[12] = test system: Mycobacterium tuberculosis; experiment: Antitubercular activity against rifampin, isoniazid, kanamycin and ofloxacin-resistant Mycobacterium tuberculosis infected in human THP-1 cells assessed as inhibition of intracellular activity at 20 mg/L after 4 days; details: THP-1, 96 h
[13] = test system: Mycobacterium tuberculosis; experiment: Antitubercular activity against isoniazid-resistant Mycobacterium tuberculosis infected in human THP-1 cells assessed as inhibition of intracellular activity at 10 mg/L after 4 days; details: THP-1, 96 h
[14] = test system: Mycobacterium tuberculosis; experiment: Antitubercular activity against rifampin and isoniazid-resistant Mycobacterium tuberculosis infected in human THP-1 cells assessed as inhibition of intracellular activity at 10 mg/L after 4 days; details: THP-1, 96 h
[15] = test system: Mycobacterium tuberculosis; experiment: Antitubercular activity against rifampin, isoniazid and streptomycin-resistant Mycobacterium tuberculosis infected in human THP-1 cells assessed as inhibition of intracellular activity at 10 mg/L after 4 days; details: THP-1, 96 h
[16] = test system: Mycobacterium tuberculosis; experiment: Antitubercular activity against rifampin, isoniazid and ethambutol-resistant Mycobacterium tuberculosis infected in human THP-1 cells assessed as inhibition of intracellular activity at 10 mg/L after 4 days; details: THP-1, 96 h
[17] = test system: Mycobacterium tuberculosis; experiment: Antitubercular activity against rifampin, isoniazid, amikacin and ofloxacin-resistant Mycobacterium tuberculosis infected in human THP-1 cells assessed as inhibition of intracellular activity at 10 mg/L after 4 days; details: THP-1, 96 h
[18] = test system: Mycobacterium tuberculosis; experiment: Antitubercular activity against rifampin, isoniazid, kanamycin and ofloxacin-resistant Mycobacterium tuberculosis infected in human THP-1 cells assessed as inhibition of intracellular activity at 10 mg/L after 4 days; details: THP-1, 96 h

SMILES	MIC [1]	MIC [2]	MIC [3]	MIC [4]	MIC [5]	MIC [6]	inhibition at 20 µg/mL [7]	inhibition at 20 µg/mL [8]	inhibition at 20 µg/mL [9]	inhibition at 20 µg/mL [10]	inhibition at 20 µg/mL [11]	inhibition at 20 µg/mL [12]	inhibition at 10 µg/mL [13]	inhibition at 10 µg/mL [14]	inhibition at 10 µg/mL [15]	inhibition at 10 µg/mL [16]	inhibition at 10 µg/mL [17]	inhibition at 10 µg/mL [18]
NNC(=O)c1ccncc1 [ISONIAZID]	> 8 µg/mL	> 8 µg/mL	> 8 µg/mL	> 8 µg/mL	> 8 µg/mL	> 8 µg/mL												
COc1cccc(-c2nc3ccccc3c(=O)n2OC(=O)c2cccc([N+](=O)[O-])c2)c1	5 µg/mL (≈ 12 µM)	5 µg/mL (≈ 12 µM)	5 µg/mL (≈ 12 µM)	5 µg/mL (≈ 12 µM)	5 µg/mL (≈ 12 µM)	5 µg/mL (≈ 12 µM)												
O=C(On1c(-c2ccccc2)nc2ccccc2c1=O)c1cccc([N+](=O)[O-])c1	5 µg/mL (≈ 12.9 µM)	5 µg/mL (≈ 12.9 µM)	5 µg/mL (≈ 12.9 µM)	5 µg/mL (≈ 12.9 µM)	5 µg/mL (≈ 12.9 µM)	5 µg/mL (≈ 12.9 µM)												
CO[C@H]1/C=C/O[C@@]2(C)Oc3c(C)c(O)c4c(O)c(c(/C=N/N5CCN(C)CC5)c(O)c4c3C2=O)NC(=O)/C(C)=C\C=C\[C@H](C)[C@H](O)[C@@H](C)[C@@H](O)[C@@H](C)[C@H](OC(C)=O)[C@@H]1C [RIFAMPIN]	0.4 µg/mL (≈ 0.486 µM)	> 8 µg/mL	> 8 µg/mL	> 8 µg/mL	> 8 µg/mL	> 8 µg/mL												
COC(=O)c1ccccc1S(=O)(=O)NC(=O)Nc1nc(C)cc(C)n1 [SULFOMETURON METHYL]	10 µg/mL (≈ 27.4 µM)	10 µg/mL (≈ 27.4 µM)	10 µg/mL (≈ 27.4 µM)	10 µg/mL (≈ 27.4 µM)	10 µg/mL (≈ 27.4 µM)	10 µg/mL (≈ 27.4 µM)	35.6%	34.4%	36.2%	35%	31.8%	36%	17.8%	16.2%	18.5%	17%	15%	18.8%
O=C(On1c(-c2ccccc2)nc2ccccc2c1=O)c1cccc(Cl)c1	5 µg/mL (≈ 13.3 µM)	5 µg/mL (≈ 13.3 µM)	5 µg/mL (≈ 13.3 µM)	5 µg/mL (≈ 13.3 µM)	5 µg/mL (≈ 13.3 µM)	5 µg/mL (≈ 13.3 µM)												
O=C(On1c(-c2cccc(F)c2)nc2ccccc2c1=O)c1cccc(F)c1	2.5 µg/mL (≈ 6.61 µM)	2.5 µg/mL (≈ 6.61 µM)	2.5 µg/mL (≈ 6.61 µM)	2.5 µg/mL (≈ 6.61 µM)	2.5 µg/mL (≈ 6.61 µM)	2.5 µg/mL (≈ 6.61 µM)	51.3%	47.5%	53.4%	50.4%	46.2%	52.2%	25.5%	22.6%	26.2%	24.2%	22.8%	26%
COc1cccc(-c2nc3ccccc3c(=O)n2OC(=O)c2cccc(C(F)(F)F)c2)c1	10 µg/mL (≈ 22.7 µM)	10 µg/mL (≈ 22.7 µM)	10 µg/mL (≈ 22.7 µM)	10 µg/mL (≈ 22.7 µM)	10 µg/mL (≈ 22.7 µM)	10 µg/mL (≈ 22.7 µM)												
